Data: patent US6344342B1, “Human G protein coupled lysophosphatidic acid receptor” (SmithKline Beecham Corporation, priority 1997, dated 2002)

Test system: HOFNH30
Assay: Ca2+-mobilization FLIPR assay in RBL-2H3 cells stably expressing HOFNH30
Assay type: cell-based, human
Conditions: several clones of RBL-2H3 cells stably expressing HOFNH30, Fluo 3AM-loaded cells
Excerpt: One preferred screening method involves co-transfecting HEK-293 cells with a mammalian expression plasmid encoding a G-protein coupled receptor (GPCR), such as HOFNH30, along with a mixture comprised of mammalian expression plasmids cDNAs encoding Gα15 (Wilkie T. M. et al Proc Natl Acad Sci USA 1991 88:10049-10053), Gα16 (Amatruda T. T. et al Proc Natl Acad Sci USA 1991 8:5587-5591, and three chimeric G-proteins refered to as Gqi5, Gqs5, and Gqo5 (Conklin B R et al Nature 1993 363:274-276, Conklin B. R. et al Mol Pharmacol 1996 50:885-890). Following a 24 h incubation the transfected HEK-293 cells are plated into poly-D-lysine coated 96 well black/clear plates (Becton Dickinson, Bedford, Mass.). The cells are assayed on FLIPR (Fluorescent Imaging Plate Reader, Molecular Devices, Sunnyvale, Calif.) for a calcium mobilization response following addition of test ligands. […]
A microtitre plate based Ca2^+-miobilization FLIPR assay (Fluorescent Imaging Plate Reader, Molecular Devices, Sunnyvale, Calif.) was used for the functional identification of the ligand activating RBL-2H3 cells stably expressing HOFNH30. […] After initiation of the assay, fluorescence was read every 1s for 1 min and then every 3 s for the following 1 min.

SMILES: CCCCCCCC/C=C\CCCCCCCC(=O)OC[C@@H](O)COP(=O)(O)O [LPA, 1-Oleoyl-sn-glycero-3-phosphate]
- calcium mobilization response: dose dependent calcium mobilization response
